The values that follow come from patent US9840498B2, “Substituted quinazolin-4-one derivatives” (NOVARTIS AG, priority 2013, dated 2017).

In experiment [1] the target is human phosphoinositide-3 kinase (PI3K) alpha (Homo sapiens (Human), UniProt P42336). Briefly: PI3K-mediated Akt 1/2 (S473) phosphorylation in Rat-1 cells overexpressing PI3K alpha. To be noted: cellular assay, p-AKT(Ser473), read-out: Cell PI3K alpha IC50. It counts as cell-based, rat cells expressing human PI3K alpha. The protocol:
(§1) 2.1 Phosphoinositide-3 kinase (PI3K)-Mediated Akt 1/2 (S473) Phosphorylation in Rat-1 Cells
(§2) Rat-1 cells stably overexpressing a myristoylated form of the catalytic subunit of human phosphoinositide-3 kinase (PI3K) alpha, beta or delta were plated in 384-well plates at a density of 7500 (PI3K alpha), 6200 (PI3K beta), or 4000 (PI3K delta) cells in 30 ul complete growth medium (Dulbecco's modified Eagle's medium (DMEM high glucose) supplemented with 10% (v/v) fetal bovine serum, 1% (v/v) MEM non essential amino acids, 10 mM HEPES, 2 mM L-glutamine, 10 μg/mL puromycin and 1% (v/v) Penicillin/Streptomycin) and were incubated at […]/5% CO2/95% humidity for 24 h. Compounds were diluted in 384-well compound plates (compound master plates), to obtain 8-point serial dilutions for 40 test compounds in 90% DMSO, as well as 4 reference compounds plus 16 high controls and 16 low (inhibited) controls. Predilution plates were prepared by dispensing pipetting 250 nl of compound solutions into 384-well polypropylen plates (daugther plates), using a Hummingwell nanoliter dispenser. Compounds were prediluted by the addition of 49.75 ul complete growth medium. 10 ul of prediluted compound solution were transferred to the cell plate using a 384-well pipettor, resulting in a final DMSO concentration of 0.11%. Cells were incubated for 1 h at […]/5% CO2/95% humidity. The supernatant was removed, the cells were lysed in 20 ul of lysis buffer for AlphaScreen® SureFire® detection.
(§3) For detection of p-AKT(Ser473), the SureFire® p-Akt 1/2 (Ser473) Assay Kit (PerkinElmer, U.S.A.) was used. 5 ul of cell lysate was transferred to 384-well low volume Proxiplates for detection using a 384-well pipettor. Addition of AlphaScreen® SureFire® reagents was done according to the manufacturer's protocol. First, 5 ul of reaction buffer plus activation buffer mix containing AlphaScreen® acceptor beads was added, the plate was sealed, and incubated on a plate shaker for 2 hours at room temperature. Second, 2 ul of dilution buffer containing AlphaScreen® donor beads was added, and the plate was incubated on plate shaker as above for a further 2 hours. The plate was read on an AlphaScreen® compatible plate reader, using standard AlphaScreen® settings. Alternatively, p-AKT(Ser473) was detected with the CisBio HTRF Assay Kit: As positive control, 0.9 mM of 1-(3-(trifluoromethyl)-4-(piperazin-1-yl)phenyl)-8-(6-methoxypyridin-3-yl)-3-methyl-1H-imidazo[4,5-c]quinolin-2(3H)-one maleic acid salt in 90% (v/v) DMSO was added to the compound master plate. For compound testing, the cells were seeded at a density of 4000 (Rat-1_PI3Kdelta), 8000 (Rat-1_PI3Kalpha), or 6500 (Rat-1_PI3Kbeta) cells in 30 ul complete growth medium into 384-well plates, with a plastic surface promoting the adhesion of cells and their growth (assay plates) and were grown at 37° C./5% CO2/90% humidity for 24 h. Some 10 ul of the compound predilutions from the daughter plate were then transferred to the cells. After treatment with compound for 1 h, medium was removed and cells were lysed by the addition of 20 ul lysis buffer supplemented with blocking buffer. Detection of p-AKT(Ser473) was performed with the HTRF pAKT (Ser473) assay kit according to the manufacturer's instructions using 16 ul of cell lysate in a total detection volume of 20 ul.

Experiment [2] addresses human phosphoinositide-3 kinase (PI3K) delta (Homo sapiens (Human), UniProt O00329). Briefly: PI3K-mediated Akt 1/2 (S473) phosphorylation in Rat-1 cells overexpressing PI3K delta. Format: cell-based. The note with it: cellular assay, p-AKT(Ser473), read-out: Cell PI3K delta IC50. The procedure: as §1, §2, §3
A further experiment concerns the target PI 3-Kinase Gamma (Homo sapiens (Human), UniProt P48736). Briefly: Cellular U937 AKT assay for PI 3-kinase gamma. It counts as cell-based. The note with it: U937 cells, MIP1α-stimulated AKT phosphorylation, read-out: Cell PI3K gamma IC50. The protocol:
The U937 monocyte cell line is maintained in a basal medium of RPMI 1640 supplemented with 10% heat inactivated FCS, 100 U/ml Penicillin, 100 ug/ml streptomycin and 2 mM L-glutamine (Invitrogen). U937 suspension culture is maintained by seeding cells at a density of 0.125×10^6 cells per ml in fresh medium every three or four days. Cells are incubated at 37° C., 5% CO2. […] Before beginning the cell manipulations described below, the MSD (Meso Scale Discovery) assay plate is blocked by addition of 150 ul/well blocking buffer supplied and incubated with shaking for a minimum of one hour at room temperature. All steps of the assay must be performed quickly, with accurately timed incubation periods and observing temperature controls where indicated. […] Falcon tube, counted and centrifuged for eight minutes at 300 g at room temperature. Supernatant is aspirated, the cell pellet resuspended and washed once in HBSS (Hank's Balanced Salt Solution) by centrifugation for eight minutes at 300 g at room temperature. The cell pellet is resuspended in HBSS to a concentration of 4×10^6 per ml, and 100 μL of cell suspension added to each well of a flat-bottomed 96-well tissue culture plate. Assay plates are incubated for 1.5 hours at 37° C., 5% CO2 to allow background AKT phosphorylation to reduce before the compound stimulation step. […] Compound concentrations at this stage are 4-times the final concentration required in the assay plate. Cells are stimulated with compound or HBSS 0.8% DMSO by direct transfer of 50 ul/well from the compound dilution plate. The assay plate containing compound-treated cells is then incubated for 30 minutes at 37° C. A standard plate layout is used for all experiments. Compound-treated cells, in addition to positive control wells (“max MIP1α”), are stimulated with 50 μL per well of 40 ng/ml MIP1α (R&D Systems catalogue number 270-LD, lyophilized stock reconstituted to 50 μg/ml with PBS 0.1% BSA). Negative control wells (“min HBSS”), are stimulated with 50 μl/well of HBSS in the absence of MIP1α. […] Cells are incubated with MIP1α for 3 minutes, at 37° C., 5% CO2. After the three minute stimulation period, the assay plate is kept ice cold at all times. Assay plates are centrifuged for 2 minutes at 300 g, 4° C. and supernatant is removed by gently inverting, and then blotting the plate on tissue. Cells are then washed by gentle addition of 150 μL/well of ice cold HBSS and centrifugation at 300 g, for 5 minutes at 4° C. Supernatant is aspirated and the plate blotted as described above. The plate is placed on ice and cells are immediately treated with 35 μL per well of ice cold lysis buffer, prepared according to the kit instructions (per assay plate, to 5 ml of Tris lysis buffer add 100 μl of 50× protease inhibitor solution and 50 μl of each 100× phosphatase inhibitor solutions I and II). Plates are incubated on ice for 20 minutes before centrifugation at 841 g for 5 minutes, 4° C. Block buffer is aspirated from the MSD plate, and the plate washed four times with 300 μl/well Tris wash buffer. 25 μL of cell lysate is then transferred from the assay plate to the washed MSD plate which is sealed and incubated at room temperature for one hour with shaking. The plate is washed four times with 300 μL per well of Tris wash buffer before addition of 25 μL per well of sulfo-tag anti-total AKT/pAKT detection antibody (60 μl of 50× antibody stock is diluted in 1 ml block buffer mixed with 2 ml wash buffer) and incubated at room temperature for one hour with shaking. The plate is washed four times with 300 μl per well of Tris wash buffer and 150 μl per well of Read buffer is added, taking care to avoid the introduction of bubbles. The plate is immediately read using an MSD SECTOR Imager 6000. Results are exported in Excel and the percentage of phosphorylated AKT is calculated using the equation: % Phosphoprotein=((2*Phospho signal)/(Phospho signal+Total signal))*100. […]

Sequence of human phosphoinositide-3 kinase (PI3K) delta (O00329 whole entry): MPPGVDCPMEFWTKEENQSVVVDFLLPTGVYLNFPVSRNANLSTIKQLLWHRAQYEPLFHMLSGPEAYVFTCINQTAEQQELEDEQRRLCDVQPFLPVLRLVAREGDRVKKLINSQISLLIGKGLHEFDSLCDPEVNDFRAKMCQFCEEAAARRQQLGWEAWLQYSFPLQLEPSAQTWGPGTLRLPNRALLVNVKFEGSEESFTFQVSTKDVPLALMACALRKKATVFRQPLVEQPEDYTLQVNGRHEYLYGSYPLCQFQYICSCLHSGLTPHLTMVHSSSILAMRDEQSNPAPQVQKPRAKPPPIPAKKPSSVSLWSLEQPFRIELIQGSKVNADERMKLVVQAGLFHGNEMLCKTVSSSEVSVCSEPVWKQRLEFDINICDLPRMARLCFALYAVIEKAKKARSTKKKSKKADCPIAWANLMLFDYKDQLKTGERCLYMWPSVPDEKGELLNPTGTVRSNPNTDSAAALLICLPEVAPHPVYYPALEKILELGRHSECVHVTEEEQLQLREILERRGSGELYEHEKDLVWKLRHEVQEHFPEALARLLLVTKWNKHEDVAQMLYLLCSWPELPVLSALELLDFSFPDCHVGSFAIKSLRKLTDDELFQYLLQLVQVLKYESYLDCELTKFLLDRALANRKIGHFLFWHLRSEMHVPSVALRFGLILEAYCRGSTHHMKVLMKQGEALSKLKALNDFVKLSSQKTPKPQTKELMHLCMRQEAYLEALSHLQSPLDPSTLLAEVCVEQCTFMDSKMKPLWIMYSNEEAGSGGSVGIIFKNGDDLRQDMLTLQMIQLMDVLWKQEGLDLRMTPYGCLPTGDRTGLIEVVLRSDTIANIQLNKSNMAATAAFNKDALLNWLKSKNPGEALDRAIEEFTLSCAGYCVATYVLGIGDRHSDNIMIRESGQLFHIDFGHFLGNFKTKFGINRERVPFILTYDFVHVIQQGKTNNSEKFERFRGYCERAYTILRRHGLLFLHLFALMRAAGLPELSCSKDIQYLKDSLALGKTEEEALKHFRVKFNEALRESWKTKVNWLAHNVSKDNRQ
Sequence of human phosphoinositide-3 kinase (PI3K) delta (Q63787 whole entry partner): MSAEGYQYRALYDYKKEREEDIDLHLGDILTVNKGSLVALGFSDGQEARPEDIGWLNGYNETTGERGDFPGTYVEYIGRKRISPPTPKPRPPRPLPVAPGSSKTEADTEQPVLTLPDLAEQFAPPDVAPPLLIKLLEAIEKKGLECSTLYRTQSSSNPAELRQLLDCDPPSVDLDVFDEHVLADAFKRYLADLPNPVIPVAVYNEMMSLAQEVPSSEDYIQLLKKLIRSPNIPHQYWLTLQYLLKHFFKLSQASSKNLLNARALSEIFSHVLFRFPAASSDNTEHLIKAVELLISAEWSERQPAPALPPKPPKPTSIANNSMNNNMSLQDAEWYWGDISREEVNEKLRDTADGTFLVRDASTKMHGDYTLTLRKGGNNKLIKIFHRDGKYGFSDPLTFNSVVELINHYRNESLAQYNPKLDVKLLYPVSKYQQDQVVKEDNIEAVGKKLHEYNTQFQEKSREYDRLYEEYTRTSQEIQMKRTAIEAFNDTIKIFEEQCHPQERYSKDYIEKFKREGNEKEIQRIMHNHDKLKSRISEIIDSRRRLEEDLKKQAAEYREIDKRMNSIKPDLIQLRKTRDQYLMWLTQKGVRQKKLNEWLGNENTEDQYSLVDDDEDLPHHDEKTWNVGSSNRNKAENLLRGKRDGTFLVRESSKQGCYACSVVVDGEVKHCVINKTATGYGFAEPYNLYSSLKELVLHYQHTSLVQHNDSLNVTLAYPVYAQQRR
Sequence of human phosphoinositide-3 kinase (PI3K) alpha (P42336 whole entry): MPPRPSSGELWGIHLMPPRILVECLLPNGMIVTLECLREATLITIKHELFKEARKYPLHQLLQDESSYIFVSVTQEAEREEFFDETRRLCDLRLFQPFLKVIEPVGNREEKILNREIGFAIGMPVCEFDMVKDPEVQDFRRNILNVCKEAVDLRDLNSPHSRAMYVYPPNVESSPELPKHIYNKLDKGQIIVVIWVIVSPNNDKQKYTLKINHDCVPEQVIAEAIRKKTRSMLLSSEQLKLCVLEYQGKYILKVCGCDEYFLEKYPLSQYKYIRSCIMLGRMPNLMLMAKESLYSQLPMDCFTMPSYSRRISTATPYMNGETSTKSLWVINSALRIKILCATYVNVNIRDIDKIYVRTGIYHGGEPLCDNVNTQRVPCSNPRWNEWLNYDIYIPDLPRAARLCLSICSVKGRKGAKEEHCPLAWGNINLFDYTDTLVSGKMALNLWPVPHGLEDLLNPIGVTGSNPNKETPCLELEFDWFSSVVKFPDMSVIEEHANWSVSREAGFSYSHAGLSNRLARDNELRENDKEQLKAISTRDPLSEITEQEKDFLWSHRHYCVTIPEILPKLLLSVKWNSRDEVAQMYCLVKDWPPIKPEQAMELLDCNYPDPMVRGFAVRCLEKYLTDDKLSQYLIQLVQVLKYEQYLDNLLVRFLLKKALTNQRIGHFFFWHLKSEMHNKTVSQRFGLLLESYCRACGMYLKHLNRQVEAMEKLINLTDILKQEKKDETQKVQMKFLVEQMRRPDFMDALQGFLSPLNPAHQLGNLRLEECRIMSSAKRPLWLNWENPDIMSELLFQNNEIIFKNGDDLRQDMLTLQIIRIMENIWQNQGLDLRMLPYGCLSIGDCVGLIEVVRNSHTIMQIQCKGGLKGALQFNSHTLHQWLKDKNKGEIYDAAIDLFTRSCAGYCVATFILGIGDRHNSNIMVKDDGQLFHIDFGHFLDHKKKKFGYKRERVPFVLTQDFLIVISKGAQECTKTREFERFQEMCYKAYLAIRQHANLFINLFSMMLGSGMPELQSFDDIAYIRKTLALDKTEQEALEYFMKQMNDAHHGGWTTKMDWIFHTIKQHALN
Sequence of human phosphoinositide-3 kinase (PI3K) alpha (Q63787 whole entry partner): as the sequence (Q63787 whole entry partner) above
Sequence of PI 3-Kinase Gamma (P48736 whole entry): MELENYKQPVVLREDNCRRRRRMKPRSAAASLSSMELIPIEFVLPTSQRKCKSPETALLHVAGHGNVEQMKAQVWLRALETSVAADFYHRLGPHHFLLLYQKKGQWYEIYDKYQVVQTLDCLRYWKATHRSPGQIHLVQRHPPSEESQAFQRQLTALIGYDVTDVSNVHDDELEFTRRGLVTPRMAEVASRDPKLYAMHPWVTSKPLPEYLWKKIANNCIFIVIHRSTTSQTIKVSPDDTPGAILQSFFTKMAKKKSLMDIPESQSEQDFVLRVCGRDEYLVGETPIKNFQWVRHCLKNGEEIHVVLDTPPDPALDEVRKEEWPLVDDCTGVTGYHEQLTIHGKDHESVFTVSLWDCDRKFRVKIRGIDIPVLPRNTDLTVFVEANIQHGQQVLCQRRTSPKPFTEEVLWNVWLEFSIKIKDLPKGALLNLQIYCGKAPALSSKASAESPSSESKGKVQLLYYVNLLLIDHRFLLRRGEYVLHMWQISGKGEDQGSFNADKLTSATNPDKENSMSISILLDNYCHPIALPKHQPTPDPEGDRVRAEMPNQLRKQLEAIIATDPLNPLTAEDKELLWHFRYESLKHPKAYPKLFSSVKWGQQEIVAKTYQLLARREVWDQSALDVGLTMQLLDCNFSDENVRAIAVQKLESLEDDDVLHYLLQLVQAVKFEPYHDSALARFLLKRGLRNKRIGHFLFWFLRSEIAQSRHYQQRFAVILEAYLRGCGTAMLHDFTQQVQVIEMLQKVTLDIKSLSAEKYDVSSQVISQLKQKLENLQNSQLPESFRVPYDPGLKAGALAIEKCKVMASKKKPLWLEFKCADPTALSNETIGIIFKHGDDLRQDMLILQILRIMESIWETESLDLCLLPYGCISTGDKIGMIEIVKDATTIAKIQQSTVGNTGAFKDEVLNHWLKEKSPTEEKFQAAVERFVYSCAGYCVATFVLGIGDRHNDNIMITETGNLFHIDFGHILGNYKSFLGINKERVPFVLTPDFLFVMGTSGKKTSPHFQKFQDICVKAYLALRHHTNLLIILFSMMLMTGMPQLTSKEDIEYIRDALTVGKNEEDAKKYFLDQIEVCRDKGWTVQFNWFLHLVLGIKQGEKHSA

Turning to `Cc1ncc(-c2cccc3nc([C@@H]4C[C@H](O)CN4c4nc(N)nc(C)c4C#N)n(-c4ccccc4)c(=O)c23)cn1` [Example 23, 2-Amino-4-((2S,4S)-4-hydroxy-2-(5-(2-methylpyrimidin-5-yl)-4-oxo-3-phenyl-3,4-dihydroquinazolin-2-yl)pyrrolidin-1-yl)-6-methylpyrimidine-5-carbonitrile], the IC50 in experiment [1] is > 10000 nM; in experiment [2], 13 nM; on PI 3-Kinase Gamma it was 11 nM.
